According to ChEMBL document CHEMBL1201862, “PubChem BioAssay data set” (2004):
Activity calls are given as the source filed them.

Key:
[1] = target: Protein disulfide-isomerase (Homo sapiens, UniProt P07237); test: PDI inhibitors, insulin aggregation turbidity, dose response, biochemical, absorbance, cherry-picked samples (AID 602350); type: functional
[2] = cytotoxicity toward NIH3T3 fibroblasts, dose response, counter-screen, cell-based, ATP luminescence, mouse fibroblasts (AID 2010); type: functional;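 also: cells exposed to compound for about 90 hours before reading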
Protein Wnt-3a = Protein Wnt-3a (Mus musculus, UniProt P27467); test: Wnt3a-driven reporter signaling inhibition, dose response, selectivity assay for Gli-SUFU antagonist project, Wnt-LIGHT cells, luminescence (AID 651570); type: functional; settings: read-out: IC50_Mean;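 also: Wnt-LIGHT reporter cells stimulated with conditioned medium from Wnt3a-producing cells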
[3] = inhibitors of intracellular T. cruzi replication, confirmation, NIH3T3 host cells, beta-gal luminescence (AID 2044); type: functional, cell-based;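 also: intracellular parasites grown in NIH/3T3 mouse fibroblasts as host cells; luminescent beta-galactosidase reporter signal from transgenic T. cruzi replicating inside host cells; inhibitors lower the luminescence signal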
[4] = target: Melanin-concentrating hormone receptor 1 (Homo sapiens, UniProt Q99705); test: Late-stage fluorescence-based counterscreen for antagonists of the G-protein coupled receptor 7 (GPR7): cell-based dose response assay to identify antagonists of the melanin-concentrating hormone receptor 1 (MCHR1) Set 6.; type: functional
[5] = target: Neuropeptides B/W receptor type 1 (Homo sapiens, UniProt P48145); test: GPR7 antagonist potency, late-stage follow-up, cell-based, fluorescence, dose response, set 6 (AID 588583); type: functional
[6] = target: Benomyl/methotrexate resistance protein (Candida albicans, UniProt P28873); test: CaMdr1 efflux pump inhibitor potency, dose response, singleplex, Cherry Pick1 hits (AID 588608); type: functional
[7] = target: T1, Calpain-2 catalytic subunit (Sus scrofa, UniProt P43367); test: pig calpain II inhibitor potency, dose response, biochemical, fluorogenic peptide substrate (AID 1420); type: functional
T1 sequence (P43367 whole entry): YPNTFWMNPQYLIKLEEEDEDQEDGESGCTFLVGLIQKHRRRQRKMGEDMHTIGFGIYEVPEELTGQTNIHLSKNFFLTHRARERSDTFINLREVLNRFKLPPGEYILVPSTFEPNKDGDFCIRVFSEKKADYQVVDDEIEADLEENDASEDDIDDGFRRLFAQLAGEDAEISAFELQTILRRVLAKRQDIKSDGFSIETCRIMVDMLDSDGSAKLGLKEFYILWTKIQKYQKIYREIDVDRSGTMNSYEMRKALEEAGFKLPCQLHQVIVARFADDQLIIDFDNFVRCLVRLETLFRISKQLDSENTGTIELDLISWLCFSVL

Cysteine protease ATG4B = Cysteine protease ATG4B (Homo sapiens, UniProt Q9Y4P1); type: functional;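 also: Fluorescence-based dose-response confirmation assay measuring inhibition of ATG4B activity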
Phospholipase A2 = Phospholipase A2 (Homo sapiens, UniProt P04054); type: functional;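 also: confirmatory dose-response counterscreen on phospholipase A2, testing hits that came from an ultra-high-throughput screen for ATG4B inhibitors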
[8] = target: Dual specificity tyrosine-phosphorylation-regulated kinase 1A (Rattus norvegicus, UniProt Q63470); type: biochemical, Homo sapiens
[9] = target: T2, Alkaline phosphatase, tissue-nonspecific isozyme (Homo sapiens, UniProt P05186); test: TNAP enzyme inhibition by screening hits, dose response, selectivity assay for mouse IAP inhibitor project, biochemical, human TNAP, uHTS hits (AID 488906); type: functional
T2 sequence (P05186 whole entry): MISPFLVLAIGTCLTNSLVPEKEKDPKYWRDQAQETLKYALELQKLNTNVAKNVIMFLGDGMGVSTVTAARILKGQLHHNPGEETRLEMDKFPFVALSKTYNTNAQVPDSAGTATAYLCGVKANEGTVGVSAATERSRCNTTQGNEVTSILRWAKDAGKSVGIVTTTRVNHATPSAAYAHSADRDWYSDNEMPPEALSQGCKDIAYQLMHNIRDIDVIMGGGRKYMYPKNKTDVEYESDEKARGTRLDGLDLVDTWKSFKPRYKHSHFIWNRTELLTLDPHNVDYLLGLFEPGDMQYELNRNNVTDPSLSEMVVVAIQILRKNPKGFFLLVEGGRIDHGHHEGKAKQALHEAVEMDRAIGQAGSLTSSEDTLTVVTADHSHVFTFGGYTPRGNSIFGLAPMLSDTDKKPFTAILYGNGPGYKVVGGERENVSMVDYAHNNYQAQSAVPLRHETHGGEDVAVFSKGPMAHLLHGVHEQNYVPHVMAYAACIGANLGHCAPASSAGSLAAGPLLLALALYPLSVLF

[10] = target: Intestinal-type alkaline phosphatase (Homo sapiens, UniProt P09923); test: activation of human intestinal alkaline phosphatase – biochemical, dose response (AID 488873); type: functional
[11] = target: Intestinal-type alkaline phosphatase (Mus musculus, UniProt P24822); test: PubChem AID 488785; type: functional
[12] = target: Serine/threonine-protein phosphatase (Candida dubliniensis (strain CD36 / CBS 7987 / NCPF 3949 / NRRLY-17841) (Yeast), UniProt B9W6M3); test: calcineurin pathway inhibitors in yeast reporter, dose response, S. cerevisiae, CDRE-lacZ, luminescence, secondary (AID 2388); type: functional, cell-based;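 also: yeast reporter cells carrying a calcineurin-responsive lacZ construct stimulated with calcium chloride; luminescent beta-galactosidase reporter signal in whole cells rather than isolated phosphatase activity; potency for inhibition where a drop in reporter signal means calcineurin blockade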
[13] = NIH-3T3 fibroblast cytotoxicity, dose response, cytotoxicity control, cell-based, fluorescence, Alamar Blue, secondary assay (AID 2327); type: functional;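 also: NIH-3T3 mouse fibroblasts cultured with fluconazole at 8 µg/mL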
[14] = C. albicans growth with fluconazole, confirmation, fluorescence, retest (AID 2467); type: functional, cell-based
[15] = target: ATP-dependent molecular chaperone HSP82 (Candida albicans (strain WO-1) (Yeast), UniProt C4YTQ8); test: loss of DOC-induced GRE-beta-galactosidase reporter signal, dose response, Hsp90 inhibitor project, S. cerevisiae, luminescence (AID 2400); type: functional, cell-based;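 also: beta-galactosidase luminescence from glucocorticoid response element reporter as proxy for Hsp90 function; inhibitor potency where signal loss means Hsp90 inhibition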
Caspase-3 = target: T3, Caspase-3 (Homo sapiens, UniProt P42574); test: SAR Analysis of small molecule inhibitors of Sentrin-specific proteases (SENPs) using a Caspase-3 Selectivity assay. [Related pubchem assays (depositor defined):AID2540, AID2599, AID434973, AID489001]; type: functional
T3 sequence (P42574 whole entry): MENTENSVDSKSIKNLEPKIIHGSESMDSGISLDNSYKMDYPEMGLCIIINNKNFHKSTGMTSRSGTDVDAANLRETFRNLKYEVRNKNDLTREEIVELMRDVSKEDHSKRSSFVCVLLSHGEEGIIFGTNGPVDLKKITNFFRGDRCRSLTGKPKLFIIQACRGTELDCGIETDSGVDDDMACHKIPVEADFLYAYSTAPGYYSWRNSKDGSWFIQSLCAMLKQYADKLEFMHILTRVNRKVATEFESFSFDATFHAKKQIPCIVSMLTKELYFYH

[16] = target: T4, Sentrin-specific protease 8 (Homo sapiens, UniProt Q96LD8); test: SENP8 protease inhibitors, SAR follow-up, biochemical, luminescence (AID 504501); type: functional
T4 sequence (Q96LD8 whole entry): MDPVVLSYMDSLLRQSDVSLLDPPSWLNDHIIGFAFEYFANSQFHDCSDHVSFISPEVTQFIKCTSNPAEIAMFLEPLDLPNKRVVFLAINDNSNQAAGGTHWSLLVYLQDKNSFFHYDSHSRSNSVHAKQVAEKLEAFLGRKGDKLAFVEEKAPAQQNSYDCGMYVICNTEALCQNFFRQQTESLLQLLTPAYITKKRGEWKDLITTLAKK

[17] = target: T5, Sentrin-specific protease 7 (Homo sapiens, UniProt Q9BQF6); test: SENP7 protease inhibitors, SAR follow-up, biochemical, luminescence (AID 504497); type: functional
T5 sequence (Q9BQF6 whole entry): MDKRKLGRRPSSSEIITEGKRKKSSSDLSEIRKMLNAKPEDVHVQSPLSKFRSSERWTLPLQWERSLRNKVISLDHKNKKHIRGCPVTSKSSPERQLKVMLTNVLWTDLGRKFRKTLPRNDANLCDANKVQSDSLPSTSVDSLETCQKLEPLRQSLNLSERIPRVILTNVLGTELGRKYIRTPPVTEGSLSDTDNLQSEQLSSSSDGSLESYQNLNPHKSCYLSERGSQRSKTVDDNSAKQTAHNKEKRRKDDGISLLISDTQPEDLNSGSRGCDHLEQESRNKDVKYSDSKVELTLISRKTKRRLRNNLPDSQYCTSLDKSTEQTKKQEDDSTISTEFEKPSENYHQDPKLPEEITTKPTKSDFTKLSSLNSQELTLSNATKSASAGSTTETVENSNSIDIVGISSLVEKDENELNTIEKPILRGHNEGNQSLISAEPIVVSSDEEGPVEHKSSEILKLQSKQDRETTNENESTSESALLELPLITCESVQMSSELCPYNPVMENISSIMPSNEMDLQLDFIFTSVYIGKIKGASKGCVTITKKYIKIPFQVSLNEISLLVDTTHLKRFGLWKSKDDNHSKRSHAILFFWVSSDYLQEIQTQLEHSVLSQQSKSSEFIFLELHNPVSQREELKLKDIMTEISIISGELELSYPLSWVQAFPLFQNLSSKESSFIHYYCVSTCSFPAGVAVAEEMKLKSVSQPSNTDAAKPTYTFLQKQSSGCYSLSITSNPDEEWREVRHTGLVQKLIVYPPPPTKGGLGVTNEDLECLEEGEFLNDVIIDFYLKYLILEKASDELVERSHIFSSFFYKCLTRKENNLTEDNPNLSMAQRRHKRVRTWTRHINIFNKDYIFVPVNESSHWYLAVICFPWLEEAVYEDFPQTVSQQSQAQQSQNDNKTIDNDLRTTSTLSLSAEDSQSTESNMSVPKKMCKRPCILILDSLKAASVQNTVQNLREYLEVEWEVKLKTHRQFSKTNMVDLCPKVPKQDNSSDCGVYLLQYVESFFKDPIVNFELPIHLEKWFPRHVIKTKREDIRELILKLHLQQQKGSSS

[18] = target: T6, Sentrin-specific protease 6 (Homo sapiens, UniProt Q9GZR1); test: SAR Analysis of small molecule inhibitors of Sentrin-specific protease 6 (SENP6) using a Luminescent assay. [Related pubchem assays (depositor defined):AID2582, AID2599]; type: functional
T6 sequence (Q9GZR1 whole entry): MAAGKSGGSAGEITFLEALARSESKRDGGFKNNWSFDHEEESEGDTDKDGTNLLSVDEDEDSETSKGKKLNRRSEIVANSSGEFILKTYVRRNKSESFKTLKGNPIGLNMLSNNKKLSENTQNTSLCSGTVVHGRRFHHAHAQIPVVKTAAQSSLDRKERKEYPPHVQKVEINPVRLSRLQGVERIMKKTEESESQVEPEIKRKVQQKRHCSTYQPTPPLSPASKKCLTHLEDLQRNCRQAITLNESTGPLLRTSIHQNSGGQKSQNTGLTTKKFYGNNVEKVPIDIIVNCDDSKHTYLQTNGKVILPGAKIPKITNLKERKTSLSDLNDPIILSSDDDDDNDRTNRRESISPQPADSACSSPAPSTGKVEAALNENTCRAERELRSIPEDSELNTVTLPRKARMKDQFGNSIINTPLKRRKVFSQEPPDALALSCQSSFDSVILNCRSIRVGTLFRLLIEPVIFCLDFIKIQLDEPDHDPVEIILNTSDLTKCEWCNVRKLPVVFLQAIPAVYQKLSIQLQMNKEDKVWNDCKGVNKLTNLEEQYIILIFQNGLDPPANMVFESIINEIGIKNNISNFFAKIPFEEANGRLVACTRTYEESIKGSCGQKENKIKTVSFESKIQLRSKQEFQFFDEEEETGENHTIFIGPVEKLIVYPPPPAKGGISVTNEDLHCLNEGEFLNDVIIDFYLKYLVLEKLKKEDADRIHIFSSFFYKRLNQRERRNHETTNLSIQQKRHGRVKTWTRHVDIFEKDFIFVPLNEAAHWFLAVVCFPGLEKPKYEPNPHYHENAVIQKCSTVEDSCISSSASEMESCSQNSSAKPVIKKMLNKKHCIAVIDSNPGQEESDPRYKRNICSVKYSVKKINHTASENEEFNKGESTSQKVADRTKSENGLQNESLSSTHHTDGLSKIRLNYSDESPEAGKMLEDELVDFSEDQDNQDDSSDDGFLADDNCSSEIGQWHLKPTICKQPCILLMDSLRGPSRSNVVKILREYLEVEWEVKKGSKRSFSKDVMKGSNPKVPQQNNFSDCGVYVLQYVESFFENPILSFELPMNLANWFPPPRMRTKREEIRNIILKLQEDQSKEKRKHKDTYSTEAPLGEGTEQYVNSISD

Melanocortin receptor 4 = Melanocortin receptor 4 (Homo sapiens, UniProt P32245); type: functional, cell-based;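 also: Cell-based assay with luminescence read-out, confirmatory dose-response testing for agonist activity of biased ligands at MC4R; human U2OS cells with tagged receptor and beta-arrestin; potency of agonists that increase receptor coupling to beta-arrestin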
Chain of Melanocortin receptor 4 (P32245 whole entry): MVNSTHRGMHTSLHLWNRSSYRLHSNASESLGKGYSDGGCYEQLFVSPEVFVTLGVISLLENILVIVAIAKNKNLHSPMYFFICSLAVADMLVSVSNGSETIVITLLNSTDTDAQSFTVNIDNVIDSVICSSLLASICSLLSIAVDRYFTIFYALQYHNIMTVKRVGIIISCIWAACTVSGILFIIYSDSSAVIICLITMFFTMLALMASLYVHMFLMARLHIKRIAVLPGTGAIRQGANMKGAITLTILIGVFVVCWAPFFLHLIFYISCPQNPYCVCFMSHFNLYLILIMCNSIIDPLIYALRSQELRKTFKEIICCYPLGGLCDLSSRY

Chain of Protein disulfide-isomerase (P07237 whole entry): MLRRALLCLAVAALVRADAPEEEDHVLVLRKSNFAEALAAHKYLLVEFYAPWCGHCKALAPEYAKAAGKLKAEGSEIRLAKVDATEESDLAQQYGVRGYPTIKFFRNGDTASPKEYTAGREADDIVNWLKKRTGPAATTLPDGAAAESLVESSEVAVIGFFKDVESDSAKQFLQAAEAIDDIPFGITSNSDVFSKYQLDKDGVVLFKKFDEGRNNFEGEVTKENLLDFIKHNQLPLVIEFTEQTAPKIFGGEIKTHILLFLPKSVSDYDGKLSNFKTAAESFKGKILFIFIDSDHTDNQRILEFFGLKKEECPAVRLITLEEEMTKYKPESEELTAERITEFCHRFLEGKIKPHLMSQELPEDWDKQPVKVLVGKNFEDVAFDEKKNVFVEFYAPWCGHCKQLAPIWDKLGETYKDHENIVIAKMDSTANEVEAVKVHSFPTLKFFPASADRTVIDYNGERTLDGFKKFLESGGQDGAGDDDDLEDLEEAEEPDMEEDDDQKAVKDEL
Chain of Neuropeptides B/W receptor type 1 (P48145 whole entry): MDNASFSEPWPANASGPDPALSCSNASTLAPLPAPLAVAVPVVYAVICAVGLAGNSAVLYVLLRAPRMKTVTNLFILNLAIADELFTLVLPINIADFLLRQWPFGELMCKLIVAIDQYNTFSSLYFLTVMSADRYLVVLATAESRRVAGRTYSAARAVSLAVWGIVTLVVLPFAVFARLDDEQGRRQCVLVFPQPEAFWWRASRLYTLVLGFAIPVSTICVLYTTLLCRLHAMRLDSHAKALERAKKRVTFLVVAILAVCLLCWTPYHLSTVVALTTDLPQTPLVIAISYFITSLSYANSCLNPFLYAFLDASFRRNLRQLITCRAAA
Chain of Melanin-concentrating hormone receptor 1 (Q99705 whole entry): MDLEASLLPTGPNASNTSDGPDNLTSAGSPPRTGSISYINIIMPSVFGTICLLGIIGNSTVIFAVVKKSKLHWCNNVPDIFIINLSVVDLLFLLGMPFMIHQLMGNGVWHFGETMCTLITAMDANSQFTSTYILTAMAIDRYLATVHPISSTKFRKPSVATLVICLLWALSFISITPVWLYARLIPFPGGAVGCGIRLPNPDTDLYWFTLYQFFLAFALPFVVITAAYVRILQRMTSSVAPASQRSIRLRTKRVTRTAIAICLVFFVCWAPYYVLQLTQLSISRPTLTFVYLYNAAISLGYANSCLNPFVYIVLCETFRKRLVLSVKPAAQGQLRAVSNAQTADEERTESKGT
Chain of ATP-dependent molecular chaperone HSP82 (C4YTQ8 whole entry): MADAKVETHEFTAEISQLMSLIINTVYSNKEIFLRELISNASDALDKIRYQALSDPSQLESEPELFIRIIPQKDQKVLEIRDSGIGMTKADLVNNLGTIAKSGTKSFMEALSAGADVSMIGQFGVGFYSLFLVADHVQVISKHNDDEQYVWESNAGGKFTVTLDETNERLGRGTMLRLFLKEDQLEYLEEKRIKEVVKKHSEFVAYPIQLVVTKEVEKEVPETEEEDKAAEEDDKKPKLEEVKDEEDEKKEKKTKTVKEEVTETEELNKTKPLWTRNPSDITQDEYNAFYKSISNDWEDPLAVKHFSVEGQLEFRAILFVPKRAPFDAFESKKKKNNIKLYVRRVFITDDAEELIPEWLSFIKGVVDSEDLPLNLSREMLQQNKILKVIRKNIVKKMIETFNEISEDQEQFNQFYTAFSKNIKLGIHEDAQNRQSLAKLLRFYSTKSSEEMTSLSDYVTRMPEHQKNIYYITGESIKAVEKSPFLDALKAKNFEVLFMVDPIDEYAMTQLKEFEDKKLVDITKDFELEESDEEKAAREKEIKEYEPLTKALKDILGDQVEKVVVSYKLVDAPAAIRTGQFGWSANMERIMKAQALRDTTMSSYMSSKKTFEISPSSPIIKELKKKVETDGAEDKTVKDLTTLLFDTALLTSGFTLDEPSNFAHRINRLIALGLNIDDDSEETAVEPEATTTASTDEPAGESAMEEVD
Chain of Phospholipase A2 (P04054 whole entry): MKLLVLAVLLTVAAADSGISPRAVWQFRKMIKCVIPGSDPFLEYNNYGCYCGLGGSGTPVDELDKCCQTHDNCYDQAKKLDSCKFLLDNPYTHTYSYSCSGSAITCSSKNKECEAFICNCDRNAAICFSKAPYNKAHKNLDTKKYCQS
Chain of Intestinal-type alkaline phosphatase (Mus musculus, UniProt P24822) (P24822 whole entry): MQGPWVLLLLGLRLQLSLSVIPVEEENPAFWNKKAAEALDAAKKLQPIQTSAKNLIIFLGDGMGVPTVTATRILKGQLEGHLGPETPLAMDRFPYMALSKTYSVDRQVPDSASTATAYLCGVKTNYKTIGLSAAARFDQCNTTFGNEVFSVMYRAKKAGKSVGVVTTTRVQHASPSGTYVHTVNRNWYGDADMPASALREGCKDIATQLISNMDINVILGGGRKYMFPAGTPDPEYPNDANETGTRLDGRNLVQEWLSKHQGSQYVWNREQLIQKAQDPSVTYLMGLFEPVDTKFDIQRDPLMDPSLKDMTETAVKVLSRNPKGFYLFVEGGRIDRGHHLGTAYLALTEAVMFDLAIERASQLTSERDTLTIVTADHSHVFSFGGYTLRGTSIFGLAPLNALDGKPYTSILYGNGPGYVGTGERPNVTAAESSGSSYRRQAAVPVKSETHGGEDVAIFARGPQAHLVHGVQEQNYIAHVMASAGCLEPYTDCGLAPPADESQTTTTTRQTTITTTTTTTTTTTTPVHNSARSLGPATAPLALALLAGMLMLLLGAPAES
Chain of Intestinal-type alkaline phosphatase (Homo sapiens, UniProt P09923) (P09923 whole entry): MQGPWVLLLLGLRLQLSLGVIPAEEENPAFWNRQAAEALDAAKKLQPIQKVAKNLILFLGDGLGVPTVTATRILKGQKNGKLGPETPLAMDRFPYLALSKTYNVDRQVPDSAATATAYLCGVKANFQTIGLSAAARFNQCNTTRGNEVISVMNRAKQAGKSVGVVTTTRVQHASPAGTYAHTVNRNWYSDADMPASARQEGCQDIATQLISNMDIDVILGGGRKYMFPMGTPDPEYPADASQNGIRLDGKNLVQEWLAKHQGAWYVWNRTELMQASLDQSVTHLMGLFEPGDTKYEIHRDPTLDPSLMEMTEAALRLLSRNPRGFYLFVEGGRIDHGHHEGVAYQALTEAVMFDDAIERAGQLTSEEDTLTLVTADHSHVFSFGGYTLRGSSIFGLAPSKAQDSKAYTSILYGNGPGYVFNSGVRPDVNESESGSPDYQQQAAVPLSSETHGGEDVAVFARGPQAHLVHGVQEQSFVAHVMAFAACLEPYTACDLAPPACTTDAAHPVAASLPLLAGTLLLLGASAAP
Chain of Cysteine protease ATG4B (Q9Y4P1 whole entry): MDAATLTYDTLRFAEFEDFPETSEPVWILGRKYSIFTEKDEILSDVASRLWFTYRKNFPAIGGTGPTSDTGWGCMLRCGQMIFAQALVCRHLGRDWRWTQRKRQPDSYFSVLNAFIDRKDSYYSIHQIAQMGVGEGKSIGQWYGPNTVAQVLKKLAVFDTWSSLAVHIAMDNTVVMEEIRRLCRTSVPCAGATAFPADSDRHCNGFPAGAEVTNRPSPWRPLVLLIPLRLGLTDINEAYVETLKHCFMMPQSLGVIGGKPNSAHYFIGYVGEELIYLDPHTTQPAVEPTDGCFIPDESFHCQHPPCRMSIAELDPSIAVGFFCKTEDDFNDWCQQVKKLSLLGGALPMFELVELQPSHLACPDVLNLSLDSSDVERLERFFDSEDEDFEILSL
Chain of Benomyl/methotrexate resistance protein (P28873 whole entry): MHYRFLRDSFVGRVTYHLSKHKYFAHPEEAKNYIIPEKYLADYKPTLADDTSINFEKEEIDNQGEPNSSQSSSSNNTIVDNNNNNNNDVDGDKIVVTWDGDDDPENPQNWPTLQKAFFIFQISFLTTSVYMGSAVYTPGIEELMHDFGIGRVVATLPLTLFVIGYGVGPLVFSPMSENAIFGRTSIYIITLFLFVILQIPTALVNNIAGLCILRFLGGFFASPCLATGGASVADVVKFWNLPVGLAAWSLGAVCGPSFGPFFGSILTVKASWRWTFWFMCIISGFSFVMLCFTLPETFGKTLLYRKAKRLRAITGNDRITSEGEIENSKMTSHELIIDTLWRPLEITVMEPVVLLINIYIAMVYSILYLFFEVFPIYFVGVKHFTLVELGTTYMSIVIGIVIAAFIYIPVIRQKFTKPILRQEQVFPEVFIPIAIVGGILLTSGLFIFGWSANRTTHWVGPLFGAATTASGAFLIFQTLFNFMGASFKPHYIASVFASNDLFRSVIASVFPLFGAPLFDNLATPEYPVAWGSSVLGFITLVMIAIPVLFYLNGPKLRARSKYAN
Chain of Protein Wnt-3a (P27467 whole entry): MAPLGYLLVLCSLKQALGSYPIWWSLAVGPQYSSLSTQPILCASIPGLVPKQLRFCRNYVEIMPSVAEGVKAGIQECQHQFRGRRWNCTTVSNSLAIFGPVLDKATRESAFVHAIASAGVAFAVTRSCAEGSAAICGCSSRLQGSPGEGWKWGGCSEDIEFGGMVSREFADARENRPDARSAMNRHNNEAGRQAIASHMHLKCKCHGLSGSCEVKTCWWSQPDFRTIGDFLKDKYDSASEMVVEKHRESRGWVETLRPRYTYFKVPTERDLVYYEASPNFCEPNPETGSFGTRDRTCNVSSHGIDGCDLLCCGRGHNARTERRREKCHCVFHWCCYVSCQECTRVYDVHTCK

## C[C@@H]1O[C@@H](Oc2c(-c3ccc(O)c(O)c3)oc3cc(O)cc(O)c3c2=O)[C@H](O)[C@H](O)[C@H]1O [QUERCITRIN]
[1]
  AC50: 2.48 µM (active)

## c1ccc(-c2cn3c([n+]2-c2ccccc2)SCC3)cc1
[2]
  EC50: > 60 µM (not active)
Protein Wnt-3a
  IC50: 37.6 µM (inactive)
[3]
  EC50: 1.92 µM (active)

## N#CC(C#N)c1cnn(Cc2cccc3ccccc23)c(=O)c1Cl
[4]
  IC50: > 20 µM (inactive)
[5]
  IC50: > 20 µM (inactive)

## COc1ccccc1-c1nc(C(N)=O)c2[nH]c(=O)n(-c3cccc(C)c3)c2n1
[6]
  EC50: 17.2 µM (active)

## CCC(C#N)c1c(Cl)cnn(Cc2cccc3ccccc23)c1=O (stereo not given)
[4]
  IC50: 2.17 µM (active)
[5]
  IC50: 2.17 µM (active)

## COc1cnc(SCc2c(Cl)cccc2Cl)nc1Cl
[7]
  IC50: < 400 nM (not active)
Cysteine protease ATG4B
  IC50: 7.76 µM (active)
Phospholipase A2
  IC50: 7.65 µM (active)

## C[C@@H]1O[C@@H](O[C@H]2[C@H](O)[C@@H](O)[C@H](Oc3c(-c4ccc(O)c(O)c4)oc4cc(O)cc(O)c4c3=O)O[C@@H]2CO)[C@H](O)[C@H](O)[C@H]1O
[8]
  AC50: 11.4 µM (active)
[1]
  AC50: 4.28 µM (active)
[9]
  IC50: 10.8 µM (active)
[10]
  EC50: 22 µM (active)
[11]
  IC50: 5.66 µM (active)

## COc1ccc(C(=O)NNC(=S)NC(=O)c2ccc(Cl)cc2)cc1
[12]
  EC50: > 180 µM (inactive)
[13]
  EC50: > 160 µM (inactive)
[14]
  EC50: 275 nM (active)
[15]
  EC50: 13.9 µM (active)

## Oc1ccccc1-c1noc(-c2ccccc2O)n1
Caspase-3
  IC50: 0.97 µM (active)
[16]
  IC50: 3.6 µM (active)
[17]
  IC50: 2 µM (active)
[18]
  IC50: 3.5 µM (active)

## CCOC(=O)c1ccc(-c2ccc(/C=C(\C#N)C(=O)NCc3cccs3)o2)cc1
Melanocortin receptor 4
  EC50: > 89.2 µM (inactive)

## CCOC(=O)c1c(-c2ccc(-c3ccccc3)cc2)csc1NC(=O)c1ccc(C)cc1
Caspase-3
  IC50: > 99 µM (inactive)
[16]
  IC50: > 99 µM (inactive)
[17]
  IC50: > 99 µM (inactive)
[18]
  IC50: > 99 µM (inactive)
